Reference: patent US20240058352A1, “COMBINATION THERAPIES FOR THE TREATMENT OF CANCER” (Erasca, Inc., priority 2020, published 2024)

Test system: cell viability
Test: Cellular proliferation assay (percent CTG activity, FIG. 23C)
Assay type: cell-based
Details: agent alone, cell line not stated

COCOC[C@H]1C[C@H]2COc3c(Sc4cnc(N5CCC6(CC5)CO[C@@H](C)[C@H]6N)c(CO)n4)ccnc3N2C1 [compound of Formula I]
percent CTG activity (cell viability), single agent: minimal effect on cell viability
